Assay results taken from patent US20070161542A1, “Ptb1b photoprobes” (priority 2003, published 2007).

Tests used:
purified Flag-PTP1B = molecular target: T1, purified Flag-PTP1B (Homo sapiens, UniProt P18031); assay: Photolabeling of purified enzyme using radioactive photoprobes; assay type: binding
T1 construct: Flag-PTP1B (residues 1-320 as a flag fusion); made in house
T1 sequence (P18031 1-320): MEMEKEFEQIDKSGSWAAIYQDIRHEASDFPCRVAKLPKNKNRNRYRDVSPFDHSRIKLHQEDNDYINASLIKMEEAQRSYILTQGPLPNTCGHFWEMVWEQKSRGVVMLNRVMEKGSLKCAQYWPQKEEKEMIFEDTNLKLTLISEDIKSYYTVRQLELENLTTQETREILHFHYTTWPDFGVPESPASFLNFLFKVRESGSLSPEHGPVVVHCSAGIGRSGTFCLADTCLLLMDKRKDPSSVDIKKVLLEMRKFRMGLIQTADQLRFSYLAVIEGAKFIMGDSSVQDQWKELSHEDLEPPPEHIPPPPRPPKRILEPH
Experimental: (§1) All photolabeling experiments with purified enzymes or SF9 cell lysate overexpressing PTP1B were conducted in 96-well polystyrene plates in 50 μl BisTris buffer (50 mM BisTris pH 6.3, 2 mM EDTA, 1 mM DMH) containing enzyme (in BisTris buffer with 20% glycerol, 0.01% Triton X-100) or lysate and Example 9 (in water) or Example 1 (in water) at various concentrations and shaken for 1 min at room temperature. For competition studies, BzN-EJJ-AMIDE at various concentrations was added prior to the addition of the probes. The samples were then placed on ice for 5 min and irradiated with the 40 watt lamp at the standard 10 cm distance for 15 minutes. […] Autoradiography of the dried, coommassie-stained gel was done using Phosphorimaging (Molecular Devices) or by x-ray film (BioMax MS with intensifier screen, Kodak) and quantified by densitometry.
To study the labeling of PTP1B under physiological concentrations that exist in cells and tissues, ^125I -radiolabeled versions of Examples 9 and 1 were synthesized. […] The labeled enzyme was detected by phosphorimage (Molecular Devices) or x-ray film (BioMax MS with intensifier screen) from a SDS-PAGE gel after electrophoresis. From a titration of the purified PTP1B and probe, a detection limit for the two probes of Examples 9 and 1 were determined to be about 5 and 0.2 nM respectively, as detected by phosphorimaging. […]

[1] = molecular target: T2, full-length PTP1B in SF9 lysate (Homo sapiens, UniProt P18031); assay: Photolabeling of SF9 cell lysate overexpressing PTP1B; assay type: binding; conditions: PTP1B 1% wt/wt protein
T2 construct: Infected SF9 cell lysate expressing full-length PTP1B (as a flag fusion); made in house; host or cells: SF9 insect cells (infected), used as crude lysate
T2 sequence (P18031 1-435): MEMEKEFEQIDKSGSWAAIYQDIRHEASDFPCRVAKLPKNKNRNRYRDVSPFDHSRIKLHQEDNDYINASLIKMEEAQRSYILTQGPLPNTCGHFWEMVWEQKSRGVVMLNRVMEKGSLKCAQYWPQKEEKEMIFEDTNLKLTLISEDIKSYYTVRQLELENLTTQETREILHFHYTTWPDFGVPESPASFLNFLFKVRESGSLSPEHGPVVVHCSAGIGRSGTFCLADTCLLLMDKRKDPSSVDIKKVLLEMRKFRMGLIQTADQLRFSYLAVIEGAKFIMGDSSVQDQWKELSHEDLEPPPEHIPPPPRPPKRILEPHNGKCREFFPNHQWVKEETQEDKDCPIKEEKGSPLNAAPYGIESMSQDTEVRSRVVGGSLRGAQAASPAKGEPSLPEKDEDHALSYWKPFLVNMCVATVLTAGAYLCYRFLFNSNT
Description: Protein tyrosine phosphatases used in this study were expressed and purified using published procedures, as follows: (a) Flag-PTP1B (residues 1-320 as a flag fusion), Huyer et al. (29). (b) Flag-TCPTP (residues 1-281 as a flag fusion), Asante-Appiah et al. (30). (c) Flag-CD45 (residues 556-1268 as a flag fusion), Wang et al. (31). (d) Mutant C215S-PTP1B (residues 1-320 as a gst fusion), Skorey et al. (28). (e) Infected SF9 cell lysate expressing full-length PTP1B (as a flag fusion), Cromlish et al. (25). For studies using H2O2-inactivated Flag-PTP1B, 100 μl of 2 μg/ml PTP1B was incubated with 100 μl of 1 mM or 20 mM H2O2 for 15 min to obtain 50% or 100% inactivated enzyme respectively as determined by the enzyme kinetic assay.
as §1, with “temperature.” for “temperature. For competition studies, BzN-EJJ-AMIDE at various concentrations was added prior to the addition of the probes. The samples were then placed on ice for 5 min and irradiated with the 40 watt lamp at the standard 10 cm distance for 15 minutes.”, “densitometry. […]” for “densitometry.”

For `NC(=O)[C@H](Cc1ccc(C(F)(F)P(=O)(O)O)cc1)NC(=O)[C@H](Cc1ccc(C(F)(F)P(=O)(O)O)cc1)NC(=O)c1cc(I)cc(C2(C(F)(F)F)N=N2)c1` [Example 9, 4-(Difluoro(phosphono)methyl)-N-(3-iodo-5-(3-(trifluoromethyl)-3H-diaziren-3-yl)benzoyl)-L-phenylalanyl-4-(difluoro(phosphono)methyl)-L-phenylalaninamide], the efficiency of labeling (purified Flag-PTP1B; 7 nM probe, purified Flag-PTP1B, vs probe alone after gel electrophoresis) was 9%, the “detection limit of labeled PTP1B” value (purified Flag-PTP1B; 125I-radiolabeled probe, purified PTP1B, phosphorimaging) was “about 5 nM” and the “labeling of SF9 overexpressed PTP1B” value [1] was “labeled SF9 overexpressed PTP1B”.
